Experimental data from patent US7332507B2, “3-substituted quinuclidines and their use” (Neurosearch A/S, priority 2002, dated 2008).
Where a name gives a salt, the structure may show the parent alone.

Target: T1, α7-subtype of nicotinic receptors (Rattus norvegicus, UniProt Q05941)
T1 construct: Cerebral cortices from male Wistar rats (150-250 g) are homogenised; from tissue; host or cells: rat cerebral cortex membrane homogenate (male Wistar rats)
Assay: In vitro inhibition of 3H-α-bungarotoxine binding in rat brain
Conditions: rat cerebral cortex homogenate; 3H-α-bungarotoxine 2 nM; 2 hours at 37° C.

T1 sequence (Q05941 23-502): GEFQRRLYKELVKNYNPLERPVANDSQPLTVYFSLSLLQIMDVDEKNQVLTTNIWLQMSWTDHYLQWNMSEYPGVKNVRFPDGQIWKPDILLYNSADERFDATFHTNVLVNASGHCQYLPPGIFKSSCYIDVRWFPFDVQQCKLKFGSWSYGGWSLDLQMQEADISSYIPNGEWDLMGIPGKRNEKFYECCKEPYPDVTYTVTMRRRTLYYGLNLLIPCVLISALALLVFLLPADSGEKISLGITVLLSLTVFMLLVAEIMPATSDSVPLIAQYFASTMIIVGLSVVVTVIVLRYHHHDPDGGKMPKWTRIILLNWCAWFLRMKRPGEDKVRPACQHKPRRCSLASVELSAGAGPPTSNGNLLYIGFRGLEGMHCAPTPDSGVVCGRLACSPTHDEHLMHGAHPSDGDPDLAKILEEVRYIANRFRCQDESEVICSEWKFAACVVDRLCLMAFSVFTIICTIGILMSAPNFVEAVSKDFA

## c1ccc2c(c1)ncn2C1CN2CCC1CC2 (racemic) [Compound A1, (±)-3-(1-Benzimidazolyl)-quinuclidine fumaric acid salt]
  IC50: 400 nM
